Results published in patent US20260317304A1, “TEAD INHIBITORS AND METHODS OF USE” (Sporos BioDiscovery, Inc., priority 2022, published 2026).

Key:
Assay type in all cases: cell-based
[1] = tested on: MSTO-211H cells; experiment: MSTO-211H proliferation and cell viability assay (CTG); settings: Homo sapiens, 144 hours
Description: MSTO-211H cells were trypsinised, counted and plated at 1500 cells/well in 200 μl of growth media in 96 well flat bottom tissue culture treated plates. The plated cells were incubated overnight at 37° C., 5% CO2 before being treated with compounds in triplicate for each assay point. 50 μl of the serially diluted compound was added to each well giving a final DMSO concentration of 0.5% per well and a total volume of 250 μl per well. The treated cells were incubated for 144 hours (6 days) at 37° C., 5% CO2. Following compound treatment, the remaining viable cells were detected using the Promega CellTiter-Glo 2.0 assay as follows: 150 μl of media was removed from each of the wells to be assayed and 100 μl of room temperature CellTiter-Glo 2.0 reagent was added. The plate was placed on an orbital shaker at 500 rpm at room temperature for 2 minutes, and then incubated without shaking for a further 10 minutes at room temperature. 150 μl of cell lysate was removed from each well and dispensed into a single well of a white opaque 96 well plate. Luminescence at 545 nm was read using a BMG CLARIOstar plate reader. The luminescent signal was directly proportional to number of viable cells, the percent of viable cells relative to the DMSO control was then calculated for each assay point. Percent viability relative to DMSO control was plotted against compound concentration and a curve fitted with non-linear regression in GraphPad Prism software. EC50 and absolute IC50 values were calculated using GraphPad Prism software as follows: For EC50 values a non-constrained four-parameter logistic curve fit was used (Sigmoidal, 4PL, X is concentration). For Absolute IC50 values the baseline was constrained to Y=0 and top at 100 (Absolute IC50, X is concentration). Area Under the Curve (AUC): Prism computes area-under-the-curve by the trapezoidal method. The analysis sees a fitted curve as simply a series of connected XY points. Prism simply computes the area under the “curve” defined by connecting the points by straight lines. The units of the AUC are the units of the Y axis times units of the X axis.
(§1) For EC50 data, the symbol “A” indicates a value of less than 0.2 μM; the symbol “B” indicates a value in the range of from 0.2 μM up to 1 μM; and the symbol “C” indicates a value of greater than 1 μM.

[2] = tested on: Mero14 cells; experiment: Mero14 proliferation and cell viability assay (CTG); settings: 144 hours
Description: Mero14 cells were trypsinised, counted and plated at 400 cells/well in 200 μl of growth media in 96 well flat bottom tissue culture treated plates. The plated cells were incubated overnight at 37° C., 5% CO2 before being treated with compounds in triplicate for each assay point. 50 μl of the serially diluted compound was added to each well giving a final DMSO concentration of 0.5% per well and a total volume of 250 μl per well. The treated cells were incubated for 144 hours (6 days) at 37° C., 5% CO2. Following compound treatment the remaining viable cells were detected using the Promega CellTiter-Glo 2.0 assay as follows: 150 μl of media was removed from each of the wells to be assayed and 100 μl of room temperature CellTiter-Glo 2.0 reagent was added. The plate was placed on an orbital shaker at 500 rpm at room temperature for 2 minutes, and then incubated without shaking for a further 10 minutes at room temperature. 150 μl of cell lysate was removed from each well and dispensed into a single well of a white opaque 96 well plate. Luminescence at 545 nm was read using a BMG CLARIOstar plate reader. The luminescent signal was directly proportional to number of viable cells, the percent of viable cells relative to the DMSO control was then calculated for each assay point. Percent viability relative to DMSO control is plotted against compound concentration and a curve fitted with non-linear regression in GraphPad Prism software. EC50 and absolute IC50 values were calculated using GraphPad Prism software as follows: For EC50 values, a non-constrained four-parameter logistic curve fit was used (Sigmoidal, 4PL, X is concentration). For Absolute IC50 values the baseline was constrained to Y=0 and top at 100 (Absolute IC50, X is concentration). Area Under the Curve (AUC): Prism computed area-under-the-curve by the trapezoidal method. The analysis sees a fitted curve as simply a series of connected XY points. Prism simply computes the area under the “curve” defined by connecting the points by straight lines. The units of the AUC are the units of the Y axis times units of the X axis.
as §1

[3] = tested on: SDM103T2 cells; experiment: SDM103T2 proliferation and cell viability assay (CTG); settings: 144 hours
Description: SDM103T2 cells were trypsinised, counted and plated at 800 cells/well in 200 μl of growth media in 96 well flat bottom tissue culture treated plates. The plated cells were incubated overnight at 37° C., 5% CO2 before being treated with compounds in triplicate for each assay point. 50 μl of the serially diluted compound was added to each well giving a final DMSO concentration of 0.5% per well and a total volume of 250 μl per well. The treated cells were incubated for 144 hours (6 days) at 37° C., 5% CO2. Following compound treatment the remaining viable cells were detected using the Promega CellTiter-Glo 2.0 assay as follows: 150 μl of media was removed from each of the wells to be assayed and 100 μl of room temperature CellTiter-Glo 2.0 reagent was added. The plate was placed on an orbital shaker at 500 rpm at room temperature for 2 minutes, and then incubated without shaking for a further 10 minutes at room temperature. 150 μl of cell lysate was removed from each well and dispensed into a single well of a white opaque 96 well plate. Luminescence at 545 nm was read using a BMG CLARIOstar plate reader. The luminescent signal was directly proportional to number of viable cells, the percent of viable cells relative to the DMSO control was then calculated for each assay point. Percent viability relative to DMSO control was plotted against compound concentration and a curve fitted with non-linear regression in GraphPad Prism software. EC50 and absolute IC50 values were calculated using GraphPad Prism software as follows: For EC50 values a non-constrained four-parameter logistic curve fit was used (Sigmoidal, 4PL, X is concentration). For Absolute IC50 values the baseline was constrained to Y=0 and top at 100 (Absolute IC50, X is concentration). Area Under the Curve (AUC): Prism computes area-under-the-curve by the trapezoidal method. The analysis sees a fitted curve as simply a series of connected XY points. Prism simply computes the area under the “curve” defined by connecting the points by straight lines. The units of the AUC are the units of the Y axis times units of the X axis.
as §1

## Cn1cnc(-c2cc([C@@]3(C)CCNC3=O)ccc2Nc2ccc(C(F)(F)F)cc2)c1 (single isomer, unassigned) [Compound 5, 3-methyl-3-(3-(1-methyl-1H-imidazol-4-yl)-4-((4-(trifluoromethyl)phenyl)amino)phenyl)pyrrolidin-2-one]
[1]
  EC50: < 200 nM
[2]
  EC50: < 200 nM
[3]
  EC50: < 200 nM

## Cn1cnc(-c2cc(C3(C)NC(=O)NC3=O)ccc2Nc2ccc(C(F)(F)F)cc2)c1 (single isomer, unassigned) [Compound 15, 5-methyl-5-(3-(1-methyl-1H-imidazol-4-yl)-4-((4-(trifluoromethyl)phenyl)amino)phenyl)imidazolidine-2,4-dione]
[1]
  EC50: < 200 nM
[2]
  EC50: < 200 nM
[3]
  EC50: < 200 nM

## Cn1nnc(-c2cc([C@]3(C)CCNC3=O)ccc2Nc2ccc(C(F)(F)F)cc2)n1 (stereo in doubt) [Compound 20, 3-methyl-3-(3-(2-methyl-2H-tetrazol-5-yl)-4-((4-(trifluoromethyl)phenyl)amino)phenyl) pyrrolidin-2-one]
[1]
  EC50: < 200 nM
[2]
  EC50: < 200 nM
[3]
  EC50: < 200 nM

## FC(F)(F)c1ccc(CN2CCC(C3CC(Br)=NO3)CC2)cc1 (stereo not drawn) [Compound 1-2, reference compound]
[1]
  EC50: < 200 nM
[2]
  EC50: 200 to 1000 nM
[3]
  EC50: > 1000 nM

## C=CC(=O)Nc1ccc(C)c(Oc2ccc(Cl)cc2)c1 [Compound 1-3, reference compound]
[1]
  EC50: < 200 nM
[2]
  EC50: < 200 nM
[3]
  EC50: < 200 nM
